The source of these data is patent publication US9169315B2, “Heparin cofactor II fragments with anti-inflammatory and anti-coagulant activity” (XIMMUNE AB, priority 2009, dated 2015).

No end group written: not given here.

The test system of one experiment is RAW 264.7 macrophages. Kind of experiment: NO production of stimulated macrophages (Griess reaction). The following applies: for NO-release of LPS-stimulated macrophages: E. coli or P. aeruginosa LPS, 10 ng/ml; for NO production: stimulated with E. coli LPS, LTA, PGN, zymosan A. It is filed as cell-based, mouse. The protocol: (§1) 3.5×10^5 cells were seeded in 96-well tissue culture plates (Nunc, 167008) in phenol red-free DMEM (Gibco) supplemented with 10% FBS and antibiotics. Following 6 hours of incubation to permit adherence, cells were stimulated with 10 ng/mL E. coli (0111:84) LPS (Sigma), lipoteichoic acid, peptioglycan, or zymosan, with and without peptides at the indicated doses (see figure legends and figures). The levels of NO in culture supernatants were determined after 24 hours from stimulation using the Griess reaction. Briefly, nitrite, a stable product of NO degradation, was measured by mixing 50 μl of culture supernatants with the same volume of Griess reagent (Sigma, G4410) and reading absorbance at 550 nm after 15 min. Phenol-red free DMEM with FBS and antibiotics were used as a blank. A standard curve was prepared using 0-80 μM sodium nitrite solutions in ddH20.
as §1, with “coli” for “coli (0111:84)”, “(0111:B4)” for “(Sigma), lipoteichoic acid, peptioglycan, or zymosan,”, “peptide of various doses.” for “peptides at the indicated doses (see figure legends and figures).”, “reaction (Pollock, Forstermann et al. 1991).” for “reaction.”
(In general: The Griess reaction detects nitrite, a stable product of nitric oxide.)

Experiment [1] relates to intrinsic pathway of coagulation. In words: Activated partial thromboplastin time (aPTT). The following applies: normal human plasma. The protocol:
All clotting times were measured using an Amelung coagulometer. Activated partial thromboplastin time (aPTT) was measured by incubating the peptides diluted in sterile water at the indicated concentrations, with 100 μL citrated human plasma for 1 minute followed by the addition of 100 μL aPTT reagent (aPTT Automate, Diagnostica Stago) for 60 seconds at 37° C. Clotting was initiated by the addition of 100 μL of a 25-mM CaCl2 solution. In the prothombrin time assay (PT), clotting was initiated by the addition of 100 μL Thrombomax with calcium (PT reagent; Sigma-Aldrich). For measuring the thrombin clotting time (TCT), clotting was initiated by the addition of 100 μL Accuclot thrombin time reagent (TCT reagent; Sigma-Aldrich).
All clotting times were analyzed using a coagulometer (Amelung, Lemgo, Germany). The prothrombin time (PT) and the Thrombin clotting time (TCT) were measured as followed: Hundred microliter of fresh human citrate plasma together with indicated concentrations of NLF20 were pre-warmed for 60 sec at 37° C. before clot formation was initiated by adding 100 μl a clotting reagent. (PT-thromboplastin reagent (Trinity Biotech), TCT: Thrombin reagent (Technoclone)). To record the activated partial thromboplastin time (aPTT), 100 μl of a kaolin-containing solution (Technoclone) was add to the plasma-peptide mix and incubated for 200 sec before clot formation was initiated by adding 100 μl of 30 mM fresh CaCl2 solution.

In the next experiment the test system is E. coli 0111:B4 LPS. In words: LPS model in vivo (E. coli LPS-induced shock). The conditions noted are these: for IFN-γ in blood / IL-6 in blood / MCP-1 in blood / TNF-α in blood / IL-10 in blood / Platelet counts: 0.5 mg peptide; for IFN-γ in blood / IL-6 in blood / MCP-1 in blood / TNF-α in blood: 8 and 20 h after LPS injection; for IL-10 in blood: 8 or 20 h after LPS injection; for Survival: 18 mg/kg E. coli LPS i.p., peptide i.p., followed 7 days; for Weight: followed for 7 days; for Platelet counts: 8 and 20 h after LPS. Also on record: species or system C57BL/6 mice. The protocol:
Septic shock in C57BL6 mice was induced by intraperitoneal injection of 18 mg/kg E. coli LPS. Sixty minutes later KYE28 and KYE21 (0.2 and 0.5 mg; in PBS) or buffer only was administered. […] (C) Peptide treatment affects the number of platelets in the LPS-induced shock model. (D) In separate experiments mice were injected with LPS followed by administration of 0.5 mg of KYE28 or KYE21, or buffer. Animals were sacrificed at 8 h, 20 h, or after 7 days and the number of platelets in blood counted using the VetScanSystem. […] Cytokines were measured in blood from animals sacrificed at 8 or 20 h after LPS injection. […] C57BL6 were i.p. injected with […] LPS followed by 0.5 mg of KYE28 After 20 h mice were sacrificed and cytokine levels in blood were determined. (KYE28; n=10). All data are representative of two independent experiment.
RAW 264.7 macrophages were stimulated with 10 ng/ml E. coli or P. aeruginosa LPS in combination with indicated concentrations NLF20. […] Clotting times were determined without (control) or with 20 μM of the peptide. Activated partial thromboplastin time (aPTT) was measured by incubating the peptides at the indicated concentrations in citrated human plasma for 1 minute followed by the addition of 100 μl aPTT reagent (aPTT Automate, Diagnostica Stago) for 60 seconds at 37° C. Clotting was initiated by the addition of CaCl2 solution. Results illustrating the prothombin time assay (PT) and thrombin clotting time (TCT) are also presented. (C) Septic shock in C57BL6 mice was induced by intraperitoneal injection of 18 mg/kg E. coli LPS. NLF20 (0.2 or 0.5 mg in 10 mM Tris, pH 7.4) or buffer only was administered. […] (E) Weight was followed for 7 days. […] In separate experiments mice were injected with LPS followed by administration of 0.5 mg of NLF20, or buffer. Animals were sacrificed at 8 h, 20 h, and survivors after 7 days and the number of platelets in blood counted using the VetScanSystem. (F) Administration of NLF20 (0.5 mg) selectively modulates the cytokine response compared to control mice. Cytokines were measured in blood from animals sacrificed at 8 or 20 h after LPS injection. (G) NLF abrogates inflammation in lungs. Lungs were analyzed by light microscopy after staining with hematoxylin-eosin, or analyzed by scanning electron microscopy 20 h after LPS injection i.p., followed by treatment with NLF20 (0.5 mg) or buffer.
Male C57BL/6 mice (8-10 weeks, 22+/−5 g), were injected intraperitoneally with 18 mg E. coli 0111:B4 LPS (Sigma) per kg of body weight. Thirty minutes after LPS injection, 0.5 mg KYE28, KYE21 or buffer alone was injected intraperitoneally into the mice. Survival and status was followed during seven days. For blood collection and histochemistry, mice were sacrificed 20 h after LPS challenge, and lungs were removed and fixed. These experiments were approved by the Laboratory Animal Ethics Committee of Malmö/Lund.
Male C57BL/6 mice (8-10 weeks, 22+/−5 g), were injected intraperitoneally with 18 mg E. coli 0111:B4 LPS (Sigma) per kg of body weight. Thirty minutes after LPS injection, 0.5 mg NLF20 or buffer alone was injected intraperitoneally into the mice. Survival and status was followed during seven days. For blood collection and histochemistry, mice were sacrificed 20 h after LPS challenge, and lungs were removed and fixed. These experiments were approved by the Laboratory Animal Ethics Committee of Malmö/Lund.

For the sequence KYEITTIHNLFRKLTHRLFRR [KYE21], in the experiment with RAW 264.7 macrophages, the “NO-release of LPS-stimulated macrophages” value was “significantly inhibited NO-release” and the NO production result is recorded as “blocks NO production”. Also, the “Activated partial thromboplastin time (aPTT)” value in experiment [1] is reported as “only minor blocking of the aPTT”. Further, in the experiment on E. coli 0111:B4 LPS, the IFN-γ in blood result is listed as “significant reductions”, the IL-6 in blood entry was “significant reductions”, the MCP-1 in blood result is listed as “significant reductions” and the TNF-α in blood entry was “significant reductions”. Also, in the experiment on E. coli 0111:B4 LPS, the IL-10 in blood result was “an increase in IL-10 was observed after 8 h”, the Survival result is “dramatic improvement on survival” and the Weight result is on record as “full recovery of weight”.
With NLFRKLTHRLFRRNFGYTLR [NLF20], in the experiment on RAW 264.7 macrophages (10 ng/ml E. coli or P. aeruginosa LPS), the “Concentration eliminating LPS-induced NO-responses” value is 20 to 40 µM. For the same sequence, in the experiment on RAW 264.7 macrophages, the NO production result is reported as “blocks NO production”. Further, the “Activated partial thromboplastin time (aPTT)” value in experiment [1] is on record as “impaired the intrinsic pathway of coagulation”. In the experiment with E. coli 0111:B4 LPS, the Platelet counts entry is listed as “significantly increased platelets”; the IFN-γ in blood entry was “significant reductions”; the IL-10 in blood result is “an increase in IL-10 was observed after 8 h and 20 h”; the Survival entry is “dramatic improvement on survival”. Further, the Weight entry in the experiment on E. coli 0111:B4 LPS is given as “full recovery of weight”.
Consider KYEITTIHNLFRKLTHRLFRRNFGYTLR [KYE28], for which, in the experiment on RAW 264.7 macrophages, the “NO-release of LPS-stimulated macrophages” value is given as “significantly inhibited NO-release” and the NO production entry is reported as “blocks NO production”. Besides, the “Activated partial thromboplastin time (aPTT)” value in experiment [1] was “impair the intrinsic pathway of coagulation”. Moreover, in the experiment on E. coli 0111:B4 LPS, the Platelet counts result is listed as “increased platelet levels after 20 h”, the IFN-γ in blood entry was “significant reductions”, the IL-6 in blood entry is on record as “significant reductions” and the MCP-1 in blood entry is “significant reductions”. For the same sequence, in the experiment on E. coli 0111:B4 LPS, the TNF-α in blood result is given as “significant reductions”, the IL-10 in blood entry is recorded as “an increase in IL-10 was observed after 8 h”, the Survival entry is “dramatic improvement on survival” and the Weight result is listed as “full recovery of weight”.
